Source: doi:10.1101/2025.07.02.662801v1 (biorxiv, 2025)
Like-named read-outs stand apart in the source and are kept apart here.

Legend:
Assay type in all cases: biochemical
PTPN9 (MEG2) = target: T1, PTPN9 (MEG2) (Homo sapiens, UniProt P43378); test: in vitro phosphatase activity curve
T1 sequence (P43378 1-593): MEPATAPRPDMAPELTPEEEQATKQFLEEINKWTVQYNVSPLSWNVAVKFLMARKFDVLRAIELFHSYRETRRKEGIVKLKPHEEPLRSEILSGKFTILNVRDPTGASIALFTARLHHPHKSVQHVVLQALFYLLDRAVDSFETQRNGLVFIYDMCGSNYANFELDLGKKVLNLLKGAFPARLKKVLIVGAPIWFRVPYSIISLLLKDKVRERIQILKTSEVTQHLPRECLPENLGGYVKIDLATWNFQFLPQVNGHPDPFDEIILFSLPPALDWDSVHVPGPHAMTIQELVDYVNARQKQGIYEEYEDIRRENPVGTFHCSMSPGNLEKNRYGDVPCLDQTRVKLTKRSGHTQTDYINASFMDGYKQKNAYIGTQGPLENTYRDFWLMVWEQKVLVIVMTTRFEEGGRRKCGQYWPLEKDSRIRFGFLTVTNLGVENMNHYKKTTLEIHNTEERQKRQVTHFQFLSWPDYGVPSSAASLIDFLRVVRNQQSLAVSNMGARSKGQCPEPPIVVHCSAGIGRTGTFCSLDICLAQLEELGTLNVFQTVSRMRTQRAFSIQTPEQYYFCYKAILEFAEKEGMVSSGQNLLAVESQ

[1] = target: T2, PTPN1 (PTP1B); GST-PTP1B catalytic domain (Homo sapiens, UniProt P18031); test: DiFMUP fluorescence phosphatase assay
T2 sequence (P18031 1-321 limits assumed): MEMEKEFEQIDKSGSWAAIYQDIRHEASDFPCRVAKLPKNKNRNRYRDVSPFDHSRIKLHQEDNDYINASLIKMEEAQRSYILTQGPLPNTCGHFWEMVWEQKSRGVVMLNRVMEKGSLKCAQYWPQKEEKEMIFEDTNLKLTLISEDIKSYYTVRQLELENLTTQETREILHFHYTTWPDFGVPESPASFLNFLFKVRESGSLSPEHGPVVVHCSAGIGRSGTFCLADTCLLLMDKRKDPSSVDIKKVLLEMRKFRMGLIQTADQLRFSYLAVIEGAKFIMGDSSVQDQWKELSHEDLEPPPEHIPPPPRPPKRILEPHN

[2] = target: T3, PTPN2 (TC-PTP); GST-TC-PTP catalytic domain (Homo sapiens, UniProt P17706); test: DiFMUP fluorescence phosphatase assay
T3 sequence (P17706 1-314 limits assumed): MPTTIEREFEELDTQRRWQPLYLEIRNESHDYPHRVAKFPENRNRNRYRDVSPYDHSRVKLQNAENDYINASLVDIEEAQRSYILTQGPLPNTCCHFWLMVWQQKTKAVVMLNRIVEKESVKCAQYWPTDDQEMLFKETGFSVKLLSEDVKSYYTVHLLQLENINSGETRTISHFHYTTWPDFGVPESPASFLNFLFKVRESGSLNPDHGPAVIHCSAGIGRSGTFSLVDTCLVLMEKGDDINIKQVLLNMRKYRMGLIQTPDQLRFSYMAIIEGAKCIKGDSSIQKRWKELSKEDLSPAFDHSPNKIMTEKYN

Row | IC50 (PTPN9 (MEG2)) | IC50 [1] | IC50 [2] | Structure (SMILES) | IC50 ([2]; 50 mM HEPES pH 7.0, 3 mM DTT, 1 mg/mL BSA, 25 °C, DiFMUP at Km)
1 | 7200 nM | 188 nM | 188 nM | N#CCc1ccc2cc(Br)c(C(F)(F)P(=O)(O)O)cc2c1 [KQ791] | –
2 | – | – | – | N#Cc1ccc2cc(Br)c(C(F)(F)P(=O)(O)O)cc2c1 [L598] | 489 nM
